# Test results as given in patent publication EP2931723B1, “NEW BICYCLIC COMPOUNDS AND THEIR USE AS ANTIBACTERIAL AGENTS AND -LACTAMASE INHIBITORS” (Fedora Pharmaceuticals Inc., priority 2012, dated 2014).
# Assays:
# Assay in all cases: MIC, antibacterial and synergistic activity
# Type in all cases: cell-based
# E. coli JMI 10767 [1] = conditions: E. coli JMI 10767 (Wt)
# Experimental: (§1) In the Tables 10 - 12, compounds herein disclosed were tested in combination with various antibiotics against metallo β-lactamase producing bacteria. Table 3: Synergy of the inhibitor Ex. 1 (4 µg/mL) in combination with antibiotics
# E. coli JMI 10768 [2] = conditions: E. coli JMI 10768 (CTX-M15 (Weak ESBL))
# Experimental: as §1
# E. coli JMI 10770 [3] = conditions: E. coli JMI 10770 (CTX-M15 (Hyper ESBL))
# Experimental: as §1
# E. coli JMI 2665 = tested on: E. coli JMI 2665
# Experimental: as §1
# E. coli JMI 2671 = tested on: E. coli JMI 2671
# Method in brief: (§2)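 Here the inhibitor, at a set 4 µg/mL, accompanies each antibiotic. MIC determination used MBL-positive bacteria.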
# K. pneumo JMI 2673 [4] = conditions: K. pneumo JMI 2673 (CTX-M14 (ESBL))
# Method in brief: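 Antibacterial synergy was assessed by testing a β-lactamase inhibitor compound in combination with antibiotics. The inhibitor was held at a fixed concentration of 4 µg/mL, and the minimum inhibitory concentration of the partner antibiotic was determined in its presence.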
# K. pneumo JMI 2674 [5] = conditions: K. pneumo JMI 2674 (CTX-M15 (ESBL))
# Method in brief: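 Antibacterial activity was assessed as minimum inhibitory concentrations against a β-lactamase-producing bacterial strain. Each test inhibitor was combined with an antibiotic, with the inhibitor held at a fixed 4 µg/mL, to determine whether it acted synergistically and restored the antibiotic's effect against the resistant organism.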
# K. pneumo JMI 2699 = K. pneumo JMI 2699 (VIM-1, CTX-M3)
# Method in brief: as §2
# K. pneumo JMI 4088 [6] = conditions: K. pneumo JMI 4088 (KPC-3 (Cpase))
# Method in brief: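 The compound was tested for synergy by combining it with antibiotics and measuring minimum inhibitory concentrations against β-lactamase producing bacteria. The inhibitor was present at a fixed concentration of 4 µg/mL together with the partner antibiotic, and MIC values were recorded.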
# K.pneumo JMI 4109 [7] = conditions: K.pneumo JMI 4109 (SHV-1, SHV-12)
# Method in brief: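 Antibacterial synergy was assessed by pairing each inhibitor compound, at a constant concentration of 4 µg/mL, with β-lactam antibiotics. The combinations were run against bacterial strains that produce β-lactamases, and the readout was the minimum inhibitory concentration of the antibiotic in the presence of the inhibitor.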
# P. aerug JMI 2686 [8] = conditions: P. aerug JMI 2686 (KPC-2 (Cpase))
# Method in brief: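 This antibacterial synergy assay measured the minimum inhibitory concentration of antibiotics combined with the disclosed inhibitor compounds. The inhibitor was held at 4 µg/mL throughout. The aim was to see whether the added compound strengthened the antibiotic's action against the tested bacteria.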
# K. pneumo JMI 4106 = K. pneumo JMI 4106 (KPC-3, TEM-1, SHV-12, SHV-141)
# K. pneumo JMI 2697 = K. pneumo JMI 2697 (IMP-4 (Cpase))
# Experimental: In the Tables 10 - 12, compounds herein disclosed were tested in combination with various antibiotics against metallo β-lactamase producing bacteria.
# K. pneumo JMI 2681 = K. pneumo JMI 2681 (Oxa-48 (Cpase))
# K.pneumo JMI 4109 [9] = conditions: K.pneumo JMI 4109 (SHV-1, SHV-12); substance alone
# K. pneumo JMI 2673 [10] = conditions: K. pneumo JMI 2673 (CTX-M14 (ESBL)); substance alone
# K. pneumo JMI 2674 [11] = conditions: K. pneumo JMI 2674 (CTX-M15 (ESBL)); substance alone
# K. pneumo JMI 4088 [12] = conditions: K. pneumo JMI 4088 (KPC-3 (Cpase)); substance alone
# P. aerug JMI 2686 [13] = conditions: P. aerug JMI 2686 (KPC-2 (Cpase)); substance alone
# E. coli JMI 10767 [14] = conditions: E. coli JMI 10767 (Wt); remark: listed apart in the source
# E. coli JMI 10768 [15] = conditions: E. coli JMI 10768 (CTX-M15 (Weak ESBL)); Meropenem + inhibitor at 4 µg/mL
# E. coli JMI 10770 [16] = conditions: Escherichia coli, JMI10770; E. coli JMI 10770 (CTX-M15 (Hyper ESBL)); substance alone
# E. coli JMI 11103 = tested on: E. coli JMI 11103
# [17] = Aztreonam + inhibitor at 4 µg/mL
# [18] = Ceftazidime + inhibitor at 4 µg/mL
# [19] = Meropenem + inhibitor at 4 µg/mL
smiles,measurement,setting,value
"O=C(NNC(=O)[C@H]1CC[C@H]2CN1C(=O)N2OS(=O)(=O)O)C1CC1 (stereo in doubt) [Ex. 7, (2R,5S)-N'-(cyclopropylcarbonyl)-7-oxo-6-(sulfooxy)-1,6-diazabicyclo[3.2.1]octane-2-carbohydrazide]",MIC Aztreonam + inhibitor,E. coli JMI 10767 [1]; [17],≤0.062 µg/mL
same,MIC Ceftazidime + inhibitor,E. coli JMI 10767 [1]; [18],≤0.25 µg/mL
same,MIC Aztreonam + inhibitor,E. coli JMI 10768 [2]; [17],≤0.062 µg/mL
same,MIC Ceftazidime + inhibitor,E. coli JMI 10768 [2]; [18],2 µg/mL
same,MIC,"E. coli JMI 10768 [2]; Escherichia coli, JMI10768, substance alone",16 µg/mL
same,MIC Aztreonam + inhibitor,E. coli JMI 10770 [3]; [17],≤0.062 µg/mL
same,MIC Ceftazidime + inhibitor,E. coli JMI 10770 [3]; [18],≤0.25 µg/mL
same,MIC Meropenem + inhibitor,E. coli JMI 10770 [3]; [19],≤0.0312 µg/mL
same,MIC Aztreonam + inhibitor,"E. coli JMI 2665; E. coli JMI 2665 (CMY-2 (Plasmid Cpase)), Aztreonam + inhibitor at 4 µg/mL",≤0.062 µg/mL
same,MIC Ceftazidime + inhibitor,"E. coli JMI 2665; E. coli JMI 2665 (CMY-2 (Plasmid Cpase)), Ceftazidime + inhibitor at 4 µg/mL",≤0.25 µg/mL
same,MIC,"E. coli JMI 2665; Escherichia coli, JMI2665",2 µg/mL
same,MIC Aztreonam + inhibitor,"E. coli JMI 2671; E. coli JMI 2671 (VIM-19 (Cpase)), Aztreonam + inhibitor at 4 µg/mL",≤0.062 µg/mL
same,MIC Ceftazidime + inhibitor,"E. coli JMI 2671; E. coli JMI 2671 (VIM-19 (Cpase)), Ceftazidime + inhibitor at 4 µg/mL",0.5 µg/mL
same,MIC Meropenem + inhibitor,"E. coli JMI 2671; E. coli JMI 2671 (VIM-19 (Cpase)), Meropenem + inhibitor at 4 µg/mL",0.5 µg/mL
same,MIC,"E. coli JMI 2671; Escherichia coli, JMI2671, E. coli JMI 2671 (VIM-19 (Cpase)), substance alone",8 µg/mL
same,MIC Aztreonam + inhibitor,K. pneumo JMI 2673 [4]; [17],≤0.062 µg/mL
same,MIC Ceftazidime + inhibitor,K. pneumo JMI 2673 [4]; [18],≤0.25 µg/mL
same,MIC Meropenem + inhibitor,K. pneumo JMI 2673 [4]; [19],≤0.0312 µg/mL
same,MIC Aztreonam + inhibitor,K. pneumo JMI 2674 [5]; [17],≤0.062 µg/mL
same,MIC Ceftazidime + inhibitor,K. pneumo JMI 2674 [5]; [18],≤0.25 µg/mL
same,MIC Meropenem + inhibitor,K. pneumo JMI 2674 [5]; [19],0.125 µg/mL
same,MIC Aztreonam + inhibitor,K. pneumo JMI 2699; [17],≤0.062 µg/mL
same,MIC Ceftazidime + inhibitor,K. pneumo JMI 2699; [18],0.5 µg/mL
same,MIC Meropenem + inhibitor,K. pneumo JMI 2699; [19],0.5 µg/mL
same,MIC,"K. pneumo JMI 2699; substance alone, read-out: MIC",16 µg/mL
same,MIC Aztreonam + inhibitor,K. pneumo JMI 4088 [6]; [17],0.125 µg/mL
same,MIC Ceftazidime + inhibitor,K. pneumo JMI 4088 [6]; [18],1 µg/mL
same,MIC Meropenem + inhibitor,K. pneumo JMI 4088 [6]; [19],1 µg/mL
same,MIC Aztreonam + inhibitor,K.pneumo JMI 4109 [7]; [17],0.125 µg/mL
same,MIC Ceftazidime + inhibitor,K.pneumo JMI 4109 [7]; [18],≤0.25 µg/mL
same,MIC Meropenem + inhibitor,K.pneumo JMI 4109 [7]; [19],≤0.0312 µg/mL
same,MIC Aztreonam + inhibitor,P. aerug JMI 2686 [8]; [17],>4 µg/mL
same,MIC Ceftazidime + inhibitor,P. aerug JMI 2686 [8]; [18],>16 µg/mL
same,MIC Meropenem + inhibitor,P. aerug JMI 2686 [8]; [19],>2 µg/mL
same,MIC Aztreonam + inhibitor,K. pneumo JMI 4106; [17],0.125 µg/mL
same,MIC Ceftazidime + inhibitor,K. pneumo JMI 4106; [18],≤0.25 µg/mL
same,MIC Meropenem + inhibitor,K. pneumo JMI 4106; [19],≤0.0312 µg/mL
same,MIC,"K. pneumo JMI 4106; substance alone, read-out: MIC",16 µg/mL
same,MIC Aztreonam + inhibitor,K. pneumo JMI 2697; [17],≤0.062 µg/mL
same,MIC Ceftazidime + inhibitor,K. pneumo JMI 2697; [18],16 µg/mL
same,MIC Meropenem + inhibitor,K. pneumo JMI 2697; [19],2 µg/mL
same,MIC,K. pneumo JMI 2697; substance alone,> 16 µg/mL
same,MIC Aztreonam + inhibitor,K. pneumo JMI 2681; [17],0.25 µg/mL
same,MIC Ceftazidime + inhibitor,K. pneumo JMI 2681; [18],0.5 µg/mL
same,MIC Meropenem + inhibitor,K. pneumo JMI 2681; [19],0.25 µg/mL
same,MIC,"K. pneumo JMI 2681; substance alone, read-out: MIC",> 16 µg/mL
same,MIC,K.pneumo JMI 4109 [9],2 µg/mL
same,MIC,K. pneumo JMI 2673 [10],> 16 µg/mL
same,MIC,K. pneumo JMI 2674 [11],> 16 µg/mL
same,MIC,K. pneumo JMI 4088 [12],> 16 µg/mL
same,MIC,P. aerug JMI 2686 [13],> 16 µg/mL
same,MIC Meropenem + inhibitor,E. coli JMI 10767 [14]; [19],≤0.0312 µg/mL
same,MIC,"E. coli JMI 10767 [14]; Escherichia coli, JMI10767, substance alone",8 µg/mL
same,MIC Meropenem + inhibitor,E. coli JMI 10768 [15],≤0.0312 µg/mL
same,MIC,E. coli JMI 10770 [16],8 µg/mL
same,MIC Aztreonam + inhibitor,"E. coli JMI 11103; E. coli JMI 11103 (CTX-M15 (Intermediate ESBL)), Aztreonam + inhibitor at 4 µg/mL",≤0.062 µg/mL
same,MIC Ceftazidime + inhibitor,"E. coli JMI 11103; E. coli JMI 11103 (CTX-M15 (Intermediate ESBL)), Ceftazidime + inhibitor at 4 µg/mL",≤0.25 µg/mL
same,MIC Meropenem + inhibitor,"E. coli JMI 11103; E. coli JMI 11103 (CTX-M15 (Intermediate ESBL)), Meropenem + inhibitor at 4 µg/mL",≤0.0312 µg/mL
same,MIC,"E. coli JMI 11103; Escherichia coli, JMI11103, E. coli JMI 11103 (CTX-M15 (Intermediate ESBL)), substance alone",16 µg/mL
